For orientation: pIC50 means the negative decadic logarithm of the IC50, by convention in mol/L. Higher therefore signals a low IC50.

pIC50: −log10 of the molar value.

Sequence of human GOAT (ghrelin O-acyl transferase) (Q96T53 whole entry): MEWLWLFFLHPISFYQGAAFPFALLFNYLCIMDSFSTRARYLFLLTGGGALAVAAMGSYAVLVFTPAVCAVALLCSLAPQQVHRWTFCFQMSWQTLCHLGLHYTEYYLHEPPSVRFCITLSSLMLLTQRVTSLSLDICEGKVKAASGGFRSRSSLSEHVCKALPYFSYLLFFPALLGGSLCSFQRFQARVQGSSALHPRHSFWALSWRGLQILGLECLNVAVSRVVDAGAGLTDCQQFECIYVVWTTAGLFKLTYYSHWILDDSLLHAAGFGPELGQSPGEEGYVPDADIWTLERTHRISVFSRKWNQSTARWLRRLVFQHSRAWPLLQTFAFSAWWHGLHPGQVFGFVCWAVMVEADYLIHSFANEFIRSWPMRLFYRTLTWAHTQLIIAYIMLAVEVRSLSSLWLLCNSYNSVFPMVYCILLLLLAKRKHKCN

The target of the assay is human GOAT (ghrelin O-acyl transferase) (Homo sapiens (Human), UniProt Q96T53). Put plainly: Determination of hGOAT activity in HEK293 cells after incubation with test compound (acyl-ghrelin ELISA). Format: cell-based. The conditions noted are these: HEK293 cells stably transfected with preproghrelin and human GOAT cDNA; octanoate-BSA 100 μM; 5 hours incubation; acyl-ghrelin in medium by ELISA; 8 compound concentrations. The protocol:
Determination of hGOAT Activity in HEK293 Cells after incubation with test compound
HEK293 cells stably transfected with two expression vectors, one coding for preproghrelin cDNA and a second for the expression of human GOATcDNA are used as a cellular model. After feeding the cells with octanoic acid for 5 hours, acyl-ghrelin is measured in cell culture medium by an ELISA procedure.
Cellline: Hek293 hGOAT/PPGhrl Clone #1B8Sodium octanoate, Sigma, Cat.-No. C5038
BSA: Sigma, Cat.-No. A8806
BD Poly-D-Lysin 384-well Plates, black-clear polystyrene BD Bioscience Cat.-No. […] ELISA human acylated Ghrelin Kit purchased from Bertin Pharman (detailed composition of buffers e.g. wash-puffer, ELISA buffer not known)
All further reagents used were of highest analytical grade available.
Cells are plated with a density of 5000 cells/well in 384-well poly-D-lysin plates and incubated for 1 day at 37° C., 5% CO2 in DMEM medium, 10% FCS, 1×NEAA, Puromycin (0.5 μg/ml) and G418 (1 mg/ml). Then the medium is changed to a identical medium without FCS and containing Octanoate-BSA (final concentration 100 μM each) and compound in DMSO (final DMSO concentration 0.3%). After incubation for 5 hours acylghrelin in the medium is measured by ELISA.
The medium sample is diluted 1:25 in Elisa buffer, a 25 μl aliquot is transferred to a 384-well ELISA plate previously washed 4 times with 100 μL wash buffer, and 25 μl tracer-solution is added. After incubation overnight (˜20 h) at 4° C. temperature the plate is washed 4 times with 100 μl wash-buffer per well. Finally 50 μl Ellman's reagent is added to each well and the plate is incubated in the dark for 20 minutes. The absorbance is measured at 405 nm in an Envision multilabel reader and the amount of acylated ghrelin is calculated according to a acylated ghrelin standard curve provided in the same plate.
The analysis of the data is performed by calculation of the percentage of acyl-ghrelin produced in the presence of test compound compared to the amount of acyl-ghrelin produced in the vehicle control samples. An inhibitor of the GOAT enzyme will give values between 100% CTL (no inhibition) and 0% CTL (complete inhibition).
IC50 values are calculated with Assay Explorer or other suited software based on curve fitting of results of 8 different compound concentrations.
Background: ELISA stands for enzyme-linked immunosorbent assay.
As for `Cc1nc2ncnn2c(N)c1Cc1ccc(C#N)c(OCC(F)F)n1` [Example 9.1, 6-({7-Amino-5-methyl-[1,2,4]triazolo[1,5-a]pyrimidin-6-yl}methyl)-2-(2,2-difluoroethoxy)pyridine-3-carbonitrile], the pIC50 was 8.62. The value for `Cc1nc2ncnn2c(N)c1Cc1ccc(C#N)c(OCCCF)n1` [Example 9.3] was 9.25; that for `Cc1nc2ncnn2c(N)c1Cc1ccc(Br)c(OCC(C)(F)F)n1` [Example 1.1, 6-{[5-Bromo-6-(2,2-difluoropropoxy)pyridin-2-yl]methyl}-5-methyl-[1,2,4]triazolo[1,5-a]pyrimidin-7-amine] was 9.51. The value for `Cc1nc2ncnn2c(N)c1Cc1ccc(C#N)c(NCCCF)n1` [Example 7.9] was 8.89; that for `Cc1nc2ncnn2c(N)c1Cc1ccc(OC(F)(F)F)c(N=S(C)(C)=O)c1` [Example 11.1, {[5-({7-Amino-5-methyl-[1,2,4]triazolo[1,5-a]pyrimidin-6-yl}methyl)-2-(trifluoromethoxy)phenyl]imino}dimethyl-λ6-sulfanone] was 9.02. For `COc1cc(C(F)(F)F)ccc1Cc1c(Cl)nc2ncnn2c1N` [Example 25.1, 5-Chloro-6-{[2-methoxy-4-(trifluoromethyl)phenyl]methyl}-[1,2,4]triazolo[1,5-a]pyrimidin-7-amine], the pIC50 was 9.08.

Turning to `Cc1nc2ncnn2c(N)c1Cc1ccc(Br)c(N2CCC(F)(F)CC2)n1` [Example 23.2], the pIC50 is 9.54. The value for `Cc1nc2ncnn2c(N)c1Cc1ccc(C(F)(F)F)nc1OC1CCC1` [Example 4.6] was 8.52; that for `Cc1nc2ncnn2c(N)c1Cc1ccc(Br)c(OCC(F)F)n1` [Example 8.4] was 9.52.

The compound `Cc1nc2ncnn2c(N)c1Cc1ccc(Br)c(C2(C#N)CC(F)(F)C2)n1` [Example 14.1, 1-[6-({7-Amino-5-methyl-[1,2,4]triazolo[1,5-a]pyrimidin-6-yl}methyl)-3-bromopyridin-2-yl]-3,3-difluorocyclobutane-1-carbonitrile] gave a pIC50 of 9.51. On to `Cc1nc2ncnn2c(N)c1Cc1ccc(Br)c(NCC(F)(F)F)n1` [Example 8.2], for which the pIC50 is 9.64. The value for `Cc1nc2ncnn2c(N)c1Cc1ccc(C(F)(F)F)c(Br)c1` [Example 4.3] was 8.96. With `Cc1nc2ncnn2c(N)c1Cc1ccc(C#N)c(OCC(F)(F)F)n1` [Example 9.5] the figure was 8.41; with `Cc1nc2ncnn2c(N)c1Cc1ccc(OC(F)F)c(C#N)n1` [Example 12.1, 6-({7-Amino-5-methyl-[1,2,4]triazolo[1,5-a]pyrimidin-6-yl}methyl)-3-(difluoromethoxy)pyridine-2-carbonitrile], 8.36.

The compound `Cc1nc2ncnn2c(N)c1Cc1ccc(Br)c(N2CC(C(F)(F)F)C2)n1` [Example 23.7] had a pIC50 of 8.11. With `Cc1nc2ncnn2c(N)c1Cc1ccc(OC(F)(F)F)c(C(=O)NC(C)C)c1` [Example 15.3] the figure was 8.07; with `Cc1nc2ncnn2c(N)c1Cc1ccc(S(=O)(=O)C(F)(F)F)cc1` [Example 18.1, 5-Methyl-6-[(4-trifluoromethanesulfonylphenyl)methyl]-[1,2,4]triazolo[1,5-a]pyrimidin-7-amine], 8.38.

Consider `Cc1nc2ncnn2c(N)c1Cc1ccc(Br)c(-n2ccc(C(F)(F)F)n2)n1` [Example 10.2], for which the negative-log IC50 (pIC50) was 8.55. For `Cc1nc2ncnn2c(N)c1Cc1ccc(C#N)c(OCCF)n1` [Example 9.4], the negative logarithm of the IC50 (pIC50) is 8.43. The value for `Cc1nc2ncnn2c(N)c1Cc1ccc(OC(F)(F)F)c(C#N)c1` [Example 20.1, 5-({7-Amino-5-methyl-[1,2,4]triazolo[1,5-a]pyrimidin-6-yl}methyl)-2-(trifluoromethoxy)benzonitrile] was 8.04; that for `Cc1nc2ncnn2c(N)c1Cc1ccc(Br)c(-n2cc(C(F)(F)F)cn2)n1` [Example 10.3] was 8.07.

The values above are taken from patent US11583532B2, “Triazolopyrimidine derivatives for use as ghrelin o-acyl transferase (GOAT) inhibitors” (Boehringer Ingelheim International GmbH, priority 2018, dated 2023).
